Like-named read-outs stand apart in the source and are kept apart here.
Legend:
[1] = background statement; cited from earlier work
CYP2D6 [2] = molecular target: T1, CYP2D6 (Homo sapiens, UniProt P10635); assay: CYP2D6 kinetic parameters (PBPK input parameters); format: in vitro ADME; details: input parameter of the PBPK model
From the text: (§1) A physiologically based pharmacokinetic (PBPK) model was used to simulate the plasma exposure of tasipimidine in fasted healthy 30 years old males of 70 kg with different CYP2D6 phenotypes. Simulations were produced with the commercial GastroPlus® 9.8.2 software.

[3] = dogs, triggered by noise or owner departure; cited from earlier work
[4] = Physicochemical input parameters of the PBPK model; details: input parameter of the PBPK model
From the text: as §1

[5] = First-in-man single-dose escalation study, plasma PK; format: in vivo; details: both sexes, human, po, mean
Experimental: The first-in-man study was a randomized, double-blind, placebo-controlled, single-dose escalation study with healthy female and male subjects aged 18-44 years. The subjects were allocated to cohorts of 8 subjects of which 6 received active treatment and 2 received placebo. Each subject received either 1 dose of tasipimidine oral solution or 1 dose of placebo oral solution during the study. The studied doses of tasipimidine were 10, 25, 50, 100, and 150 μg as oral solution.
(§2) The subjects were genotyped for CYP2D6 on screening. The translation of CYP2D6 genotype to CYP2D6 phenotype was done according to the national consensus published by the Dutch Pharmacogenetics Working Group from KNMP (https://www.knmp.nl/index.php/media/113). The subjects with CYP2D6 poor metabolizer genotype were excluded from the study. The translation of CYP2D6 genotype to activity score was done according to the CYP2D6 Allele Functionality Table of PharmGKB (https://www.pharmgkb.org/page/cyp2d6RefMaterials).
Frequent blood samples were taken through an intravenous cannula for the assessment of the concentration of tasipimidine and its metabolite 1 in plasma. The sampling times were before (0 h) and 15 min, 30 min, 45 min, 1, 1.5, 2, 3, 4, 5, 6, 8, 10, 12, 16, and 24 hours after the study treatment administration. The PK parameters were calculated from the plasma concentration-time data by noncompartmental method using the commercial Phoenix WinNonlin software version 8.3.

CYP1A2 = molecular target: T2, CYP1A2 (Homo sapiens, UniProt P05177); assay: Recombinant human CYP incubations (enzyme identification); format: in vitro ADME
T2 construct: purchased; host or cells: baculovirus-transfected insect cells
T2 sequence (P05177 1-516): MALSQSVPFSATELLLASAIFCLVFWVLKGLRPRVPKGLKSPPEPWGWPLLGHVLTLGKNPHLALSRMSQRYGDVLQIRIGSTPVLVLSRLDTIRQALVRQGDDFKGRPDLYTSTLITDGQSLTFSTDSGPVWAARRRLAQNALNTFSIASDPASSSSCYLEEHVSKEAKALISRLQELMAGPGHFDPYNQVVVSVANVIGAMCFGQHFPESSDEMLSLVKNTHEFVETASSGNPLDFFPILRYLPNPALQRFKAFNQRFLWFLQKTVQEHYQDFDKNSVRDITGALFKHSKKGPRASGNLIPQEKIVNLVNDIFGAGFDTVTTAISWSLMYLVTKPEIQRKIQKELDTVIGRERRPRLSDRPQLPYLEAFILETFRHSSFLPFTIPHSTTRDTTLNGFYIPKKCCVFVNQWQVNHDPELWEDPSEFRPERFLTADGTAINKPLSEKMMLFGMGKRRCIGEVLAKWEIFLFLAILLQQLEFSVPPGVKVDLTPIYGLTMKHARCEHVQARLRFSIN
Experimental: (§3) The objective of these studies was to identify enzymes involved in the metabolism of tasipimidine in human. The test substance tasipimidine and the reference compounds for main tasipimidine metabolites 1-(4,5-dihydro-1H-imidazol-2-yl) isochroman-5-ol (metabolite 1), 2-(5-methoxyisochroman-1-yl)-1H-imidazole (metabolite 2), and 1-(1H-imidazol-2-yl) isochroman-5-ol (metabolite 3) were supplied by Orion Pharma. To further support the findings of recombinant enzyme incubations tasipimidine was incubated with human hepatocytes with two enzyme inhibitors, i.e. 1-aminobenzotriazole (ABT, non-selective CYP inhibitor), and quinidine (CYP2D6 inhibitor).
(§4) The analysis for disappearance of tasipimidine and the identification of the formed metabolites were carried out by using a high-resolution liquid chromatographic-mass spectrometer supported by accurate masses (UPLC-HRMS). Firstly, metabolic stability of tasipimidine in different in vitro matrices was determined by monitoring the disappearance of the parent compound as a function of time. Moreover, structures of the formed metabolites were characterized from their respective product ion spectra. The synthetized reference compounds of the metabolites were used to confirm the identification of those specific metabolites.

CYP1A1 = molecular target: T3, CYP1A1 (Homo sapiens, UniProt P04798); assay: as above; format: in vitro ADME
T3 construct: purchased; host or cells: baculovirus-transfected insect cells
T3 sequence (P04798 1-512): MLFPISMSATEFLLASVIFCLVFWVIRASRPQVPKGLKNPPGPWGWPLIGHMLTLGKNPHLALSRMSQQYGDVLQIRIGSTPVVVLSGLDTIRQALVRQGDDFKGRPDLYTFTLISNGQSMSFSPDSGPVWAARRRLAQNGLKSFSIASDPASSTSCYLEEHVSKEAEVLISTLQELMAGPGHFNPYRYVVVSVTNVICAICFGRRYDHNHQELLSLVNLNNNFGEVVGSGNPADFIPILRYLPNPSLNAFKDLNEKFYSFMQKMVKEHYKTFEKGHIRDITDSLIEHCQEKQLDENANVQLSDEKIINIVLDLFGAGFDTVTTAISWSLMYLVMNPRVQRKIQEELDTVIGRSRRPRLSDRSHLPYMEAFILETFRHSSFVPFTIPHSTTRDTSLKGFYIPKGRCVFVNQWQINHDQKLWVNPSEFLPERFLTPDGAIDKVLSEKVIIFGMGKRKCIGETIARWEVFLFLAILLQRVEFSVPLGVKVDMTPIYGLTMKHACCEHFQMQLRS
Experimental: as §3, §4

CYP2C19 = molecular target: T4, CYP2C19 (Homo sapiens, UniProt P33261); assay: as above; format: in vitro ADME
T4 construct: purchased; host or cells: baculovirus-transfected insect cells
T4 sequence (P33261 whole entry): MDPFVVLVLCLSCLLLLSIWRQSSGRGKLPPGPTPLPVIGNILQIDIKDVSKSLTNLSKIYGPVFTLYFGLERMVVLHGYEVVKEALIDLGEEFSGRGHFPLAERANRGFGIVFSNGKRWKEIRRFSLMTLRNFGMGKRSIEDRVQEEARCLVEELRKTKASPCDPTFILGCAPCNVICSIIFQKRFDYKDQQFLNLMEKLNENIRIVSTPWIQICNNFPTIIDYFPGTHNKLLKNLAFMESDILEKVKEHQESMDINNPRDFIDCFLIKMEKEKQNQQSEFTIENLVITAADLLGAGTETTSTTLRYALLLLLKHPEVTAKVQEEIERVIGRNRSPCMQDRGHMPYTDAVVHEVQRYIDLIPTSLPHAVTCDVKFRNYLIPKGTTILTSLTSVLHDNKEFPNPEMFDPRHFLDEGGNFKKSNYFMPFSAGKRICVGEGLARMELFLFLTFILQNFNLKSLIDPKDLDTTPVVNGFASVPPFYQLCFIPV
Experimental: as §3, §4

CYP2D6 [6] = molecular target: T1, CYP2D6; assay: Incubation with rhCYP2D6 Supersomes: intrinsic clearance and enzyme kinetics; format: in vitro ADME; parameters: purchased; host or cells: baculovirus-transfected insect cells
Experimental: as §3
(§5) Moreover, enzyme kinetics of tasipimidine metabolism was studied in rhCYP2D6.
(§6) Enzyme kinetics of tasipidimine metabolism by rhCYP2D6 was studied by incubating the test compound at 0.16, 0.41, 1, 2.6, 6.4, 16, 40 and 100 μM concentrations containing 10 pmol/ml of the CYP enzyme for 0, 5, 10, 20, and 30 min. Enzyme kinetics was estimated from CLint values measured for the test compound at different concentrations while metabolite characterisation was not performed.
(§7) The analysis for disappearance of tasipimidine and the identification of the formed metabolites were carried out by using a high-resolution liquid chromatographic-mass spectrometer supported by accurate masses (UPLC-HRMS). […]

[7] = Renal clearance (PBPK input parameter); details: human, in vivo; input parameter of the PBPK model
From the text: as §1

[8] = Caco-2 permeability (PBPK input parameter); format: in vitro ADME; details: human, input parameter of the PBPK model
From the text: as §1

[9] = Blood to plasma ratio and fraction unbound in plasma (PBPK input parameters); format: in vitro ADME; details: human, input parameter of the PBPK model
From the text: as §1

[10] = Paroxetine co-treatment crossover PK study in healthy subjects; format: in vivo, human; details: 10 μg oral, mean, n = 5; for AUC(0-inf) / Cmax / half-life: human, plasma; for half-life: read-out: t½ (converted)
Experimental: Effect of co-treatment with a strong CYP2D6 inhibitor paroxetine on the PK of tasipimidine was studied. The study was an open label, crossover study with 5 healthy female and/or male subjects aged 26-51 years. The study started with a 8 days long once daily treatment of paroxetine 20 mg tablet. On the last day of paroxetine treatment, a single 10 μg dose of tasipimidine as oral solution was administered 1 h after the paroxetine intake after an overnight fast.
as §2
Frequent blood samples were taken through an intravenous cannula for the assessment of the concentration of tasipimidine and its metabolite 1 in plasma. The sampling times were before (0 h) and 20 min, 40 min, 1, 1.5, 2, 2.5, 3, 3.5, 4, 5, 6, 8, 12, 24, 36, and 48 hours after the study treatment administration. The PK parameters were calculated from the plasma concentration-time data by noncompartmental method using the commercial Phoenix WinNonlin software version 8.3.

[11] = substrate: COc1cccc2c1CCOC2C1=NCCN1; assay: Incubation with rhCYP2D6 Supersomes: intrinsic clearance and enzyme kinetics; format: in vitro ADME, human; details: other: rhCYP2D6, 0.16-100 μM, 10 pmol/ml CYP
Experimental: as §3, §5, §6, §7

[12] = substrate: COc1cccc2c1CCOC2C1=NCCN1; assay: CYP2D6 kinetic parameters (PBPK input parameters); format: in vitro ADME; details: other: input parameter of the PBPK model
From the text: as §1

[13] = with paroxetine 20 mg once daily for 8 days

Clc1cccc(Cl)c1N=C1NCCN1 [clonidine]
elimination half-life (t1/2) [1]: 14 h

COc1cccc2c1CCOC2C1=NCCN1 (stereo not drawn) [tasipimidine, 2-(5-methoxyisochroman-1-yl)-4,5-dihydro-1H-imidazole]
Vmax for CYP2D6 (CYP2D6 [2]): 0.000043 mg/s
relief of situational anxiety and fear [3]: effective in relieving situational anxiety and fear
logP [4]: 1.66
pKa [4]: 9.24
AUC(0-inf) ([5]; 10 ug, 10 μg single oral dose, corrected by CYP2D6 genotype based activity score, n = 6, read-out: AUCinf * AS): 0.09 ng·h/mL
AUC(0-inf) ([5]; 10 ug, 10 μg single oral solution dose, n = 6, healthy subjects, read-out: AUCinf): 0.052 ng·h/mL
AUC(0-inf) ([5]; 25 ug, 25 μg single oral dose, corrected by CYP2D6 genotype based activity score, n = 6, read-out: AUCinf * AS): 0.254 ng·h/mL
AUC(0-inf) ([5]; 25 ug, 25 μg single oral solution dose, n = 6, healthy subjects, read-out: AUCinf): 0.186 ng·h/mL
AUC(0-inf) ([5]; 50 ug, 50 μg single oral dose, corrected by CYP2D6 genotype based activity score, n = 6, read-out: AUCinf * AS): 0.475 ng·h/mL
AUC(0-inf) ([5]; 50 ug, 50 μg single oral solution dose, n = 6, healthy subjects, read-out: AUCinf): 0.36 ng·h/mL
AUC(0-inf) ([5]; 100 ug, 100 μg single oral dose, corrected by CYP2D6 genotype based activity score, n = 6, read-out: AUCinf * AS): 1.03 ng·h/mL
AUC(0-inf) ([5]; 100 ug, 100 μg single oral solution dose, n = 6, healthy subjects, read-out: AUCinf): 1.03 ng·h/mL
AUC(0-inf) ([5]; 150 ug, 150 μg single oral dose, corrected by CYP2D6 genotype based activity score, n = 6, read-out: AUCinf * AS): 2.03 ng·h/mL
AUC(0-inf) ([5]; 150 ug, 150 μg single oral solution dose, n = 6, healthy subjects, read-out: AUCinf): 1.74 ng·h/mL
contribution of enzyme to tasipimidine metabolism (CYP1A2): minor contributors
contribution of enzyme to tasipimidine metabolism (CYP1A1): minor contributors
contribution of enzyme to tasipimidine metabolism (CYP2C19): minor contributors
contribution of enzyme to tasipimidine metabolism (CYP2D6 [6]; CYP2D6, human in vitro systems): major enzyme
intrinsic clearance (CLint) (CYP2D6 [6]; tasipimidine 1 μM in rhCYP2D6): 1.75 μl/min/pmol CYP
CL renal [7]: 105 mL/min
Papp [8]: 15.4 ×10⁻⁶ cm/s
blood plasma ratio ([9]; blood and plasma): 1.13
fraction unbound ([9]; plasma): 0.86
AUCinf ratio with/without paroxetine [10]: 3.1
Cmax ratio with/without paroxetine [10]: 1.9
t½ ratio with/without paroxetine [10]: 1.7
AUC(0-inf) ([10]; 10 ug, without paroxetine): 0.106 ng·h/mL
Cmax ([10]; 10 ug, without paroxetine): 0.026 ng/mL
half-life ([10]; 10 ug, without paroxetine): 2.6 h
AUC(0-inf) [10, 13]: 0.281 ng·h/mL
Cmax [10, 13]: 0.047 ng/mL
half-life [10, 13]: 4.3 h

B1: rhCYP2D6 (Homo sapiens) (protein)
chain: MGLEALVPLAVIVAIFLLLVDLMHRRQRWAARYPPGPLPLPGLGNLLHVDFQNTPYCFDQLRRRFGDVFSLQLAWTPVVVLNGLAAVREALVTHGEDTADRPPVPITQILGFGPRSQGVFLARYGPAWREQRRFSVSTLRNLGLGKKSLEQWVTEEAACLCAAFANHSGRPFRPNGLLDKAVSNVIASLTCGRRFEYDDPRFLRLLDLAQEGLKEESGFLREVLNAVPVLLHIPALAGKVLRFQKAFLTQLDELLTEHRMTWDPAQPPRDLTEAFLAEMEKAKGNPESSFNDENLRIVVADLFSAGMVTTSTTLAWGLLLMILHPDVQRRVQQEIDDVIGQVRRPEMGDQAHMPYTTAVIHEVQRFGDIVPLGVTHMTSRDIEVQGFRIPKGTTLITNLSSVLKDEAVWEKPFRFHPEHFLDAQGHFVKPEAFLPFSAGRRACLGEPLARMELFLFFTSLLQHFSFSVPTGQPRPSHHGVFAFLVSPSPYELCAVPR
notes: purchased; host or cells: baculovirus-transfected insect cells
Km [11]: 0.53 µM
kcat [11]: 3.1 pmol/min/pmol CYP

B2: CYP2D6 (Homo sapiens) (protein)
chain: MGLEALVPLAVIVAIFLLLVDLMHRRQRWAARYPPGPLPLPGLGNLLHVDFQNTPYCFDQLRRRFGDVFSLQLAWTPVVVLNGLAAVREALVTHGEDTADRPPVPITQILGFGPRSQGVFLARYGPAWREQRRFSVSTLRNLGLGKKSLEQWVTEEAACLCAAFANHSGRPFRPNGLLDKAVSNVIASLTCGRRFEYDDPRFLRLLDLAQEGLKEESGFLREVLNAVPVLLHIPALAGKVLRFQKAFLTQLDELLTEHRMTWDPAQPPRDLTEAFLAEMEKAKGNPESSFNDENLRIVVADLFSAGMVTTSTTLAWGLLLMILHPDVQRRVQQEIDDVIGQVRRPEMGDQAHMPYTTAVIHEVQRFGDIVPLGVTHMTSRDIEVQGFRIPKGTTLITNLSSVLKDEAVWEKPFRFHPEHFLDAQGHFVKPEAFLPFSAGRRACLGEPLARMELFLFFTSLLQHFSFSVPTGQPRPSHHGVFAFLVSPSPYELCAVPR
Km [12]: 0.106 mg/L

Reference: patent US20260097017A1, “TASIPIMIDINE AND CYP2D6 INHIBITOR COMBINATION TREATMENT” (ORION CORPORATION, priority 2022, published 2026)
